According to patent US20240182422A1, “PREPARATION METHOD OF QUINOLINE DERIVATIVE COMPOUNDS” (ABIVAX, priority 2021, published 2024):

What was measured:
[1] = USP <711> / Ph. Eur. 2.9.3 pharmacopeial dissolution profile (apparent dissolution test, paddle apparatus); assay type: physicochemical; conditions: for solubility (percentage dissolved) at 45 min: 50 mg drug substance, 900 mL 0.25% CTAB in 0.1 M HCl, paddle USP type II 100 rpm
Procedure: Pharmacopeial (USP <711>, Ph. Eur. 2.9.3) dissolution profiles of the drug substance were established.
A dissolution experiment evaluates the rate and extent that a compound forms a solution under carefully controlled conditions and using paddle dissolution apparatus fulfilling USP <711>, Ph. Eur. 2.9.3 requirements.
The dissolution profiles of 50 mg from a native ABX464 and one milled ABX 464 (8000 rpm) drug substance (DS) in the dissolution media have been compared.
The dissolution conditions and materials were as follows: • Equipment • Class A glassware • Analytical scale • Automatic pipette • UPLC system consisting of a binary or quaternary pump, an automated injector, a thermostated column oven, and a UV or DAD detector controlled by the Waters Empower® software • AT 7 smart (Sotax) or equivalent dissolution apparatus with USP type II paddle • Chemicals • water (dissolution medium) Demineralized water purified by Milli_Q Millipore (type II) • Demineralized water purified by Milli_Q Millipore • syringe filter Spartan 30 mm HPLC-Certified syringe Filter, 0.2 μm, RC (regenerated cellulose) • Acetonitrile Biosolve (UPLC grade) (ACN) • Cetyl trimethylammonium bromide (CTAB) • Hydrochloric acid (HCl) 1M (AVS tritinorm) • Formic acid (LCMS grade) • Chromatographic conditions • Column: Acquity UPLC BEH C18, 2.1 mm ID*50 mm, 1.7 μm pore size or equivalent • Mobile phase A: 0.1% (v/v) Formic acid in water • Mobile phase B: ACN • Isocratic mode 35% A/65% B • Flow rate 0.3 mL/min • Analytical run time: 5 min • Volume injection: 5 μL • Detection: UV at 220 nm • Autosampler: room temperature • Column temperature: 40° C. • Needle wash: Water/ACN (50/50 v/v) • Diluent • Dissolution medium: 0.25% CTAB in 0.1 M HCl. Transfer 25 g of CTAB into a 10 000 mL volumetric flask, add 1 000 mL of HCl 1M and dilute to volume with water (different amounts and volumes may be used as long as the final concentration remains the same) • Solutions
Accurately weight 22.2 mg of the drug substance into a 100 mL volumetric flask, dissolve in about 5 mL ACN and dilute to volume with diluent. • Dissolution conditions • Dissolution medium: 0.25% CTAB in 0.1 M HCl • Temperature: 37° C. +/−0.5° C. • Agitation: 100 rpm +/−1 rpm • Type of agitation: Paddle (USP type II) • Volume of dissolution medium: 900 mL • Sampling time: 5, 10, 15, 30, 45, 60, 75 and 90 min • Sampling volume 5 ml (discard the first 3 ml) • Test on 6 vessels • place the sample (50 mg) into each dissolution vessel
The non-corrected dissolved percentages were calculated as follows: […]
The corrected dissolved percentage were calculated as follows: […]

[2] = Particle size distribution measurement (WET method, laser diffraction, Mastersizer); assay type: physicochemical; conditions: PSD wet method, dispersant demineralised water, Triton X100
From the text: Particle size distribution (PSD), summarized by D10, D50 and D90 values, were obtained by using the WET method, the details of which are as follows: • Material used: • Equipment: Mastersizer 300 (hydro MV) • Dispersant: demineralised water • Surfactant: Triton X100 • No saturation • Operational parameters: • optical model: Particles type (MS3000 only) no-spherical • Mie: • refractive index of particles: 1.443 • absorption index of particles: 0.1 • refractive index of the dispersant: 1.33 • Measurement: • Measurement time: 10 seconds • Measurement time of the background: 10 seconds • Stirrer speed: 1200 rpm +/−400 • Obscuration range: 5-19% • Delay time measurement: 1-5 minutes • Model: standard • Analysis precision: normal • Sample preparation: • Weight about 100 mg of product in a glass beaker • Add 2-4 drops of surfactant • Complete with the dispersant until the 20 mL mark of the 50 mL graduated beaker • Shake for 3 seconds to 60 seconds • Put in the external ultrasound cell • Sonication duration: 2-3minutes
After the milling step 5, the milled sample thus obtained from example 4 was characterized by measurement of its particle size distribution (see table 3 below) according to the method as defined above.
For comparison purposes, the measurement of the particle size distribution has also been carried out for the native 8-chloro-N-(4-(trifluoromethoxy)phenyl)quinolin-2-amine (Form I) obtained from step 4 of example 4 above (i.e. product obtained from example 4 before milling).

[3] = listed as Native (not milled) compound

SMILES | solubility (percentage dissolved) at 45 min ([1]; 37° C., 45 min) | solubility compared to the native compound (FIG. 2 dissolution profile) ([1]; milled at 8000 rpm vs native, 0.25% CTAB in 0.1 M HCl, 37° C.) | increase of solubility (percentage dissolved) of milled compound compared to the native compound at 45 min ([1]; same dissolution conditions, 45 min, milled (8000 rpm) vs native) | Particle size distribution D10 [2] | Particle size distribution D50 [2] | Particle size distribution D90 [2] | Particle size distribution D10 ([2]; listed as milled ABX464) | Particle size distribution D50 ([2]; listed as milled ABX464) | Particle size distribution D90 ([2]; listed as milled ABX464) | Particle size distribution D10 [2, 3] | Particle size distribution D50 [2, 3] | Particle size distribution D90 [2, 3]
FC(F)(F)Oc1ccc(Nc2ccc3cccc(Cl)c3n2)cc1 [milled compound, 8-chloro-N-(4-(trifluoromethoxy)phenyl)quinolin-2-amine] | 95.4% | improved solubility | about 38.1% | 6.8 μm | 50.0 μm | 122.0 μm | 6.8 μm | 50.0 μm | 122.0 μm |  |  | 
FC(F)(F)Oc1ccc(Nc2ccc3cccc(Cl)c3n2)cc1 [native compound, 8-chloro-N-(4-(trifluoromethoxy)phenyl)quinolin-2-amine] | 57.3% |  |  |  |  |  |  |  |  | 24.5 μm | 164.0 μm | 444.0 μm
